This note sets out measurements from patent US5480983A, “Adenosine derivatives, preparation methods and pharmaceutical compositions containing them” (Laboratoires UPSA, priority 1992, dated 1996).

The target of test [1] is T1, rat central A2 adenosinergic receptors (Rattus norvegicus, UniProt P30543).
T1 construct: the striatum is removed from each of them (Bruns et al., 1986); from tissue; host or cells: rat striatum, homogenate (membrane preparation)
The test can be described thus: Binding to adenosine A2 receptors ([3H] NECA displacement). To be noted: [3H] NECA 4 nM, n=3; for inhibition at 10 µM: 1E-5M, read-out: % displacement of the labeled ligand, A2, 1E-5M; for inhibition at 0.1 µM: 1E-7M, read-out: % displacement of the labeled ligand, A2, 1E-7M. As for the experimental part: (§1) The affinity of the products of the Examples for the rat central A1 and A2 adenosinergic receptors is determined by the competitive technique using a radioactive ligand specifically bound either to the A1 receptors ([^3 H] PIA) or to the A2 receptors ([^3 H] NECA).
Method of studying the A2 receptors Membrane preparation
After decapitation of the animal, the brain is quickly removed and washed in cold isotonic solution. The two hemispheres are separated and the striatum is removed from each of them (Bruns et al., 1986), weighed and introduced into a polyallomer tube containing 10 volumes of cold homogenization buffer. The tissue is homogenized with an Ultra-Turrax for 30 seconds (3 times 10 seconds with 10-second intervals, 70% of the maximum speed). The ground material is centrifuged at 50,000 g (≈20,500 rpm) for 10 minutes at 4° C.
The residue obtained is resuspended in 10 volumes of homogenization buffer using a Vortex and homogenized with the Ultra-Turrax (5 to 10 seconds, 70% of the maximum speed).
Adenosine deaminase is then added at a rate of 1 U/ml, i.e. 1 μl/ml of homogenate, using a 10 μl Hamilton syringe. The homogenate treated in this way is shaken at room temperature for 30 minutes.
When the incubation is complete, the homogenate is centrifuged at 50,000 g (≈20,500 rpm) for 10 minutes at 4° C.
The residue is taken up with 5 volumes of cold homogenization buffer and passed through the Ultra-Turrax (2 times 10 seconds with a 10-second interval, 70% of the maximum speed) and the homogenate prepared in this way is finally frozen at -70° C. Competitive test
After the homogenate has been thawed at room temperature, 15 volumes of incubation buffer are added. The homogenate is shaken on a Vortex, passed through a Potter mill (6 to-and-fro movements, speed 6), diluted to 1/10 in incubation buffer and finally placed in a water bath thermostated at 4° C., with shaking, until the end of the experiment.
50 μl of [^3 H] NECA at 160 nM, i.e. 4 nM in the final reaction medium allowing for the 1/40 dilution, and 50 μl of the product of the Example at the concentrations considered (10^-5 M and 10^-7 M) are introduced into the reaction tubes. The reaction is initiated by the addition of 1 ml of homogenate and 900 μl of incubation buffer. The procedure is similar for all the compounds studied.
The tubes are shaken and incubated in a water bath at 25° C. for 60 minutes. When the incubation is complete, the contents of the tubes are filtered on Whatman GF/B paper. Each tube is washed twice with 2 ml of rinsing buffer and then the filters themselves are rinsed with 3 ml of this same buffer before being transferred to counting flasks.
10 ml of liquid scintillator (Ready Solv HP/b, Beckman) are added to all the flasks. These are shaken and stored in a refrigerator overnight. The radioactivity is determined in a liquid scintillation counter.
3 tests are performed for each concentration studied. The non-specific binding of the [^3 H] NECA is determined by measuring the amount of radioactivity retained on the filter in the presence of 5 μM N-ethylcarboxamidoadenosine (NECA). The value of the non-specific binding is systematically subtracted from that of the tests.
(§2) The results are expressed for each product in the form of the percentage displacement (n=3) of the labeled radioligand at concentrations of 10^-5 M and 10^-7 M.

Test [2] in a line: Phenylbenzoquinone test (analgesic activity). The class given is in vivo. To be noted: Mus musculus, 1 h; mice; oral, one hour before phenylbenzoquinone i.p.; 5 minutes observation; read-out: Phenylbenzoquinone test 50% inhibitory dose. As for the experimental part:
2. Phenylbenzoquinone test
The intraperitoneal injection of phenylbenzoquinone causes twisting and stretching movements in mice. Analgesics prevent or reduce this syndrome, which can be considered as the exteriorization of diffuse abdominal pain.
A 0.02% solution of phenylbenzoquinone in water is administered in a volume of 1 ml/100 g.
The products of the Examples are administered orally one hour before the injection of phenylbenzoquinone.
The stretching and twisting movements are counted for each mouse over an observation period of 5 minutes.

Test [3] deals with T2, rat central A1 adenosinergic receptors (Rattus norvegicus, UniProt P25099).
T2 construct: After the animal has been sacrificed by decapitation, the brain is quickly removed and washed in cold isotonic solution; from tissue; host or cells: rat brain, membrane preparation from the two hemispheres
T2 sequence (P25099 1-326): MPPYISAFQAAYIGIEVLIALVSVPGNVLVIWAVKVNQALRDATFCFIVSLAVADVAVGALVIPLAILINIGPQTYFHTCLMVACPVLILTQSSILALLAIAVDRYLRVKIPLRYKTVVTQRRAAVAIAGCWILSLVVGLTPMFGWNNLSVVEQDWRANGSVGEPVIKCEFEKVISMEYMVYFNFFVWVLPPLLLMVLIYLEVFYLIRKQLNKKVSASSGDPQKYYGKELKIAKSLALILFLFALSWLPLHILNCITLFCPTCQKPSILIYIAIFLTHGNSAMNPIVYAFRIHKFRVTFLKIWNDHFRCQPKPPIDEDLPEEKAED
The test is described as follows: Binding to adenosine A1 receptors ([3H] PIA displacement). Conditions: [3H] PIA 2.5 nM, n=3; for inhibition at 10 µM: 1E-5M, read-out: % displacement of the labeled ligand, A1, 1E-5M; for inhibition at 0.1 µM: 1E-7M, read-out: % displacement of the labeled ligand, A1, 1E-7M. As for the experimental part: as §1
After the animal has been sacrificed by decapitation, the brain is quickly removed and washed in cold isotonic solution. The two hemispheres are separated and weighed and each of them is introduced into a polyallomer tube containing 25 volumes of cold homogenization buffer. Homogenization is effected using an Ultra-Turrax for 30 seconds (3 times 10 seconds with 10-second intervals, 70% of the maximum speed). The ground material obtained is centrifuged at 1000 g (≈3000 rpm) for 10 minutes at 4° C.
The supernatant is centrifuged again at 48,000 g (≈20,000 rpm) for 20 minutes at 4° C.
When this step is complete, the residue is taken up with 4 volumes of homogenization buffer, resuspended using a Vortex and homogenized with the Ultra-Turrax. Adenosine deaminase is then added at a rate of 1 U/ml, i.e. 1 μl/ml of homogenate, using a 10 μl Hamilton syringe.
After this treatment, the homogenate is shaken for 30 minutes at room temperature and then centrifuged at […] (≈20,000 rpm) for 30 minutes at 4° C.
The residue obtained is resuspended in 10 volumes of homogenization buffer and passed through the Ultra-Turrax for 20 seconds (2 times 10 seconds with a 10-second interval, 70% of the maximum speed).
The homogenate prepared in this way is used for the competitive tests. It is kept at 4° C. if the studies take place the same day, or stored at -20° C. in the form of 10 ml aliquots.
After the homogenate has been thawed at room temperature, it is passed through a Potter mill (6 manual to-and-fro movements, speed 6), diluted to 2/5 in incubation buffer and placed in a water bath thermostated at 4° C., with shaking, until the end of the experiment.
50 μl of [^3 H] PIA at 100 nM, i.e. 2.5 nM in the final reaction medium allowing for the 1/40 dilution, and 50 μl of the product of the Example at the concentrations considered ([…] and 10^-7 M) are introduced into the reaction tubes. The reaction is initiated by the addition of 1 ml of homogenate and 900 μl of incubation buffer. The procedure is identical for all the […] studied.
The tubes are shaken and incubated in a water bath at 20° C. for 30 minutes. When the incubation is complete, the contents of the tubes are filtered on Whatman GF/B paper. Each tube is washed twice with 2 ml of rinsing buffer and then the filters themselves are rinsed with 3 ml of this same buffer.
The filters are then transferred to counting flasks and 10 ml of liquid scintillator (Ready Solv HP/b, Beckman) are added.
After they have been shaken, the flasks are stored in a refrigerator overnight and the radio-activity is then determined in a liquid scintillation counter.
3 tests are performed for each concentration studied. The non-specific binding of the [^3 H] PIA is assessed by measuring the amount of radioactivity retained on the filter in the presence of 10^-5 M phenylisopropyladenosine (PIA). The value of the non-specific binding is systematically subtracted from that of the tests.
as §2

T1 sequence (P30543 whole entry): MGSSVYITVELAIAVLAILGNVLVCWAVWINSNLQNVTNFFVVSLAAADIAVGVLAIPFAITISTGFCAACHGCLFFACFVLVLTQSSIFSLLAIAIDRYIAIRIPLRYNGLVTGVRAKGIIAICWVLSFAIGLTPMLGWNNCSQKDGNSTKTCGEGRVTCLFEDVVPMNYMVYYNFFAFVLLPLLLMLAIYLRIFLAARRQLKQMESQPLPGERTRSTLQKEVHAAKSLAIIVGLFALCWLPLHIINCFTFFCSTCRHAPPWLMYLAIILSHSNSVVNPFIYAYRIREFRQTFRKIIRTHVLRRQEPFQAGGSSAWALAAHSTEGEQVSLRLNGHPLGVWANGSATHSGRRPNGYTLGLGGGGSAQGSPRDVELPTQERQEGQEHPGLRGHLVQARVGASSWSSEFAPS

Turning to `Cc1ccc(Cn2cc(CCNc3ncnc4c3ncn4[C@@H]3O[C@H](C(=O)NC4CC4)[C@@H](O)[C@H]3O)c3ccccc32)cc1C` [Example 67, β-D-Ribofuranuronamido-N-cyclopropyl-1-deoxy-1-[6-[[2-[1-(3,4-dimethylbenzyl)indol-3-yl]ethyl]amino]-9H-purin-9-yl]], in test [1], the inhibition at 10 µM is 83% and the inhibition at 0.1 µM was 13%. Besides, in test [2], the ED50 is 3 mg/kg. In test [3], the inhibition at 10 µM was 96% and the inhibition at 0.1 µM worked out at 29%.

Regarding `Cc1ccc(C)c(Cn2cc(CCNc3ncnc4c3ncn4[C@@H]3O[C@H](C(=O)NC4CC4)[C@@H](O)[C@H]3O)c3ccccc32)c1` [Example 68, β-D-Ribofuranuronamido-N-cyclopropyl-1-deoxy-1-[6-[[2-[1-(2,5-dimethylbenzyl)indol-3-yl]ethyl]amino]-9H-purin-9-yl]], in test [1], the inhibition at 10 µM is 84% and the inhibition at 0.1 µM was 9%. Besides, in test [2], the ED50 is 2.4 mg/kg. Also, in test [3], the inhibition at 10 µM came to 93% and the inhibition at 0.1 µM is 26%.

With `O=C(NC1CC1)[C@H]1O[C@@H](n2cnc3c(NCCc4cn(CCN5CCCCC5)c5ccccc45)ncnc32)[C@H](O)[C@@H]1O` [Example 71 (citrate), β-D-ribofuranuronamido-N-cyclopropyl-1-deoxy-1-[6-[[2-[1-(2-N-piperidinoethyl)indol-3-yl]ethyl]amino]-9H-purin-9-yl]citrate], in test [1], the inhibition at 10 µM was determined as 96% and the inhibition at 0.1 µM came out at 44%. The ED50 in test [2] came to 7.3 mg/kg. Also, in test [3], the inhibition at 10 µM turned out to be 99% and the inhibition at 0.1 µM amounted to 91%.

Take `Cc1ccc(C)c(Cn2cc(CCNc3ncnc4c3ncn4[C@@H]3O[C@H](C(=O)NC4CC4)[C@@H](O)[C@H]3O)c3cc(C)ccc32)c1` [Example 85, β-D-Ribofuranuronamido-N-cyclopropyl-1-deoxy-1-[6-[[2-[1-(2,5-dimethylbenzyl)-5-methylindol-3-yl]ethyl]amino]-9H-purin-9-yl]]: the inhibition at 10 µM in test [1] turned out to be 71%; in test [3], 100%. Besides, the inhibition at 0.1 µM is 3% in test [1] and 50% in test [3]. The ED50 in test [2] was determined as 0.9 mg/kg.

Regarding `COc1ccc2c(c1)c(CCNc1ncnc3c1ncn3[C@@H]1O[C@H](C(=O)NC3CC3)[C@@H](O)[C@H]1O)cn2Cc1cc(C)ccc1C` [Example 86, β-D-Ribofuranuronamido-N-cyclopropyl-1-deoxy-1-[6-[[2-[1-(2,5-dimethylbenzyl)-5-methoxyindol-3-yl]ethyl]amino]-9H-purin-9-yl]], in test [1], the inhibition at 10 µM came to 91% and the inhibition at 0.1 µM was 17%. The ED50 in test [2] is ~60 mg/kg. Moreover, in test [3], the inhibition at 10 µM came out at 100% and the inhibition at 0.1 µM is 16%.

In the case of `Cc1ccc(C)c(Cn2c(C)c(CCNc3ncnc4c3ncn4[C@@H]3O[C@H](C(=O)NC4CC4)[C@@H](O)[C@H]3O)c3ccccc32)c1` [Example 87, β-D-Ribofuranuronamido-N-cyclopropyl-1-deoxy-1-[6-[[2-[1-(2,5-dimethylbenzyl)-2-methylindol-3-yl]ethyl]amino]-9H-purin-9-yl]], the values for the inhibition at 10 µM in test [1] and in test [3] were 60% and 56%, respectively. In addition, the figures for the inhibition at 0.1 µM in test [1] and in test [3] were 7% and 5%, respectively. Also, in test [2], the ED50 amounted to 1.2 mg/kg.

Regarding `Cc1ccc(C)c(Cn2cc(CC(C)Nc3ncnc4c3ncn4[C@@H]3O[C@H](C(=O)NC4CC4)[C@@H](O)[C@H]3O)c3ccccc32)c1` (stereo partly drawn) [Example 92, β-D-Ribofuranuronamido-N-cyclopropyl-1-deoxy-1-[6-[[1-[1-(2,5-dimethylbenzyl)indol-3-yl]propan-2-yl]amino]-9H-purin-9-yl]], in test [1], the inhibition at 10 µM came to 84% and the inhibition at 0.1 µM turned out to be 9%. The ED50 in test [2] is 3.6 mg/kg. Also, in test [3], the inhibition at 10 µM amounted to 96% and the inhibition at 0.1 µM was determined as 21%.

On to `CC(Cc1cn(C2CCCC2)c2ccccc12)Nc1ncnc2c1ncn2[C@@H]1O[C@H](C(=O)NC2CC2)[C@@H](O)[C@H]1O` (stereo partly drawn) [Example 93, β-D-Ribofuranuronamido-N-cyclopropyl-1-deoxy-1-[6-[[1-[1-cyclopentylindol-3-yl]-propan-2-yl]amino]-9H-purin-9-yl]], for which the inhibition at 10 µM stood at 85% in test [1] and 96% in test [3]. The inhibition at 0.1 µM was determined as 22% in test [1] and 45% in test [3]. For the same molecule, in test [2], the ED50 stood at 2 mg/kg.
